Where a name gives a salt, the structure may show the parent alone.

Broadly, the IC50 is the point on the concentration scale where inhibition reaches its midpoint.

Sequence of MK-2 (P49137 whole entry, species assumed): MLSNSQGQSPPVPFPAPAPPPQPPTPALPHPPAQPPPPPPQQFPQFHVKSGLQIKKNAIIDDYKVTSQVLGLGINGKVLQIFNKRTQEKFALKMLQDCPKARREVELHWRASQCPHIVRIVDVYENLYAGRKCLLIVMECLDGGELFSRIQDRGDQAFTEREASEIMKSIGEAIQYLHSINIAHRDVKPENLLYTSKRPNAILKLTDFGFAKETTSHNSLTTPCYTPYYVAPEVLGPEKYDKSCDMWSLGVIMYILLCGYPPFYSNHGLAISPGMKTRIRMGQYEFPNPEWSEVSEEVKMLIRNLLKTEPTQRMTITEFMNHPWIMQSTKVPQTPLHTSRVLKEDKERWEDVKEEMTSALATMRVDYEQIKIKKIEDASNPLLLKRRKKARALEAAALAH

One assay concerns the target MK-2 (Homo sapiens, UniProt P49137). The assay can be described thus: Determination of MK-2 IC50 (anion exchange resin capture assay, HSP-peptide phosphorylation). It is filed as biochemical. The note with it: MK-2 Avg. IC50.
Procedure: The phosphorylation of HSP-peptide ([sequence]) by MAPKAPK2 was measured using an anion exchange resin capture assay method. […] The reaction was terminated and [γ^33P]ATP was removed from solution by the addition of 150 μl of AG 1×8 ion exchange resin in 900 mM sodium formate pH 3.0. A 50 μl aliquot of head volume was removed from the quenched reaction mixture and added to a 96-well plate, 150 μl of Microscint-40 (Packard) was added and the amount of phosphorylated-peptide was determined. Allow the Microscint to sit in the plates for 60 minutes prior to counting.
Compounds are evaluated as potential inhibitors of the MK2 kinase by measuring their effects on MK2 phosphorylation of the peptide substrate. Compounds may be screened initially at two concentrations prior to determination of IC50 values. Screening results are expressed as percent inhibition at the concentrations of compound tested. For IC50 value determinations, compounds are tested at six concentrations in ten-fold serial dilutions with each concentration tested in triplicate. Results are expressed as IC50 values in micromolar. The assay is performed at a final concentration of 2% DMSO.
Compounds are evaluated as potential inhibitors of the MK-2 kinase by measuring their effects on MK-2 phosphorylation of the peptide substrate. Compounds may be screened initially at two concentrations prior to determination of IC50 values. Screening results are expressed as percent inhibition at the concentrations of compound tested. For IC50 value determinations, compounds are tested at six concentrations in ten-fold serial dilutions with each concentration tested in triplicate. Results are expressed as IC50 values in micromolar. The assay is performed at a final concentration of 2% DMSO.
`CCOC(=O)c1cc(-c2ccnc(-c3ccc(O[Si](C)(C)C(C)(C)C)cc3)c2)nn1CCN` [Example 136, ethyl 1-(2-aminoethyl)-3-[2-(4-{[tert-butyl(dimethyl)silyl]oxy}phenyl)pyridin-4-yl]-1H-pyrazole-5-carboxylate dihydrochloride] registered an IC50 of 28300 nM.

Still in this assay, the particulars now being: read-out: MK-2 Avg. IC50.
As for `O=C1NCCCn2nc(-c3ccnc(-c4ccc(OC(F)(F)F)cc4)c3)cc21` [Example 148, 2-{2-[4-(trifluoromethoxy)phenyl]pyridin-4-yl}-5,6,7,8-tetrahydro-4H-pyrazolo[1,5-a][1,4]diazepin-4-one], the 50% inhibitory concentration (IC50) is 124000 nM.
For `CC(C)NCc1ccc(-c2cc(-c3cc4n(n3)CCNC4=O)ccn2)cc1` [Example 78], the IC50 amounted to 1730 nM.
Regarding `Nc1ccc(-c2cc(-c3cc4n(n3)CCNC4=O)ccn2)cc1` [Example 52, hydrochloride], the IC50 was 914 nM.
The same measure, in the same setting: then `COc1ccc(-c2cc(-c3cc4n(n3)CCNC4=O)ccn2)cn1` [Example 50, trifluoroacetate], with 866 nM; and `O=C1NCCn2nc(-c3ccnc(-c4ccc5c(c4)CCO5)c3)cc21` [Example 36, trifluoroacetate], with 521 nM; and `CCOC(=O)c1cc(-c2ccncc2)nn1CCN` [Example 133, ethyl 1-(2-aminoethyl)-3-pyridin-4-yl-1H-pyrazole-5-carboxylate dihydrochloride], with 24500 nM.
Same read-out and setting: then `O=C1NCCn2nc(-c3ccnc(-c4cccc(CNCCO)c4)c3)cc21` [Example 114, 2-[2-(3-{[(2-hydroxyethyl)amino]methyl}phenyl)pyridin-4-yl]-6,7-dihydropyrazolo[1,5-a]pyrazin-4(5H)-one], with 5780 nM; and `O=C1NCCn2nc(-c3ccnc(-c4ccc(O)cc4)c3)cc21` [Example 42, trifluoroacetate], with 611 nM; and `O=C1NCCn2nc(-c3ccnc(-c4ccc(OCCN5CCOCC5)cc4)c3)cc21` [Example 43, dihydrochloride], with 630 nM.
The same measure, in the same setting: then `Cn1ccc2cc(-c3cc(-c4cc5n(n4)CCNC5=O)ccn3)ccc21` [Example 32], with 479 nM.
`NCCn1nc(-c2ccnc(-c3ccc(CO)cc3)c2)cc1C(=O)NO` [Example 118, 1-(2-aminoethy)-N-hydroxy-3-{2-[4-(hydroxymethyl)phenyl]pyridin-4-yl}-1H-pyrazole-5-carboxamide trifluoroacetate]: the IC50 was 7910 nM.
Consider `O=C1NCCn2nc(-c3ccnc(-c4cccc(CN5CCOCC5)c4)c3)cc21` [Example 125, 2-{2-[3-(morpholin-4-ylmethyl)phenyl]pyridin-4-yl]-6,7-dihydropyrazolo[1,5-a]pyrazin-4(5H)-one], for which the IC50 was 11400 nM.
On the same count and under the same terms, the value for `O=C1NCCn2nc(-c3ccnc(-c4ccc5c(c4)CCN5)c3)cc21` [Example 59, hydrochloride] was 1070 nM; that for `NC(=O)C1Cn2nc(-c3ccnc(-c4cnc5ccccc5c4)c3)cc2C(=O)N1` (stereo not shown) [Example 57, trifluoroacetate] was 1010 nM.
On the same count and under the same terms, then `CCOC(=O)c1cc(-c2ccncc2)nn1CCCN` [Example 143, ethyl 1-(3-aminopropyl)-3-pyridin-4-yl-1H-pyrazole-5-carboxylate hydrochloride], with 60800 nM.
Regarding `CS(=O)(=O)c1ccc(-c2cc(-c3cc4n(n3)CCNC4=O)ccn2)cc1` [Example 48, dihydrochloride], the IC50 came to 821 nM.
As to `O=C1Cc2cc(-c3cc(-c4cc5n(n4)CCNC5=O)ccn3)ccc2N1` [Example 38, trifluoroacetate], the IC50 stood at 554 nM.
The same measure, in the same setting: then `NCCn1nc(-c2ccnc(-c3ccc(OC(F)(F)F)cc3)c2)cc1C(=O)O` [Example 11], with 161 nM; and `CC(C)NCc1cccc(-c2cc(-c3cc4n(n3)CCNC4=O)ccn2)c1` [Example 115, 2-(2-{3-[(isopropylamino)methyl]phenyl}pyridin-4-yl)-6,7-dihydropyrazolo[1,5-a]pyrazin-4(5H)-one], with 6270 nM; and “2-[2-(2H-1,2,3-triazol-2-yl)pyridin-4-yl]-6,7- dihydropyrazolo[1,5-a]pyrazin-4(5H)-one compound with 2-[2-(1H-1,2,3-triazol-1- yl)pyridin-4-yl]-6,7-dihydropyrazolo[1,5- a]pyrazin-4(5H)-one (1:1) [Example 109]”, with 5210 nM.
The same measure, in the same setting: the value for `CCOC(=O)N1CCN(CCOc2cccc(-c3cc(-c4cc5n(n4)CCNC5=O)ccn3)c2)CC1` [Example 95, trifluoroacetate] was 3020 nM; that for `O=C1NCCn2nc(-c3ccnc(-c4ccc(Cl)s4)c3)cc21` [Example 29] was 444 nM.
The same measure, in the same setting: then `NCCCn1nc(-c2ccnc(-c3cccc([N+](=O)[O-])c3)c2)cc1C(N)=O` [Example 69], with 1320 nM.
`N#Cc1cc(-c2cc3n(n2)CCNC3=O)ccn1` [Example 126, 4-(4-oxo-4,5,6,7-tetrahydropyrazolo[1,5-a]pyrazin-2-yl)pyridine-2-carbonitrile]: the concentration for half-maximal inhibition (IC50) turned out to be 13800 nM.
Still for that read-out and setting: then `CN(C)CCOc1cccc(-c2cc(-c3cc4n(n3)CCNC4=O)ccn2)c1` [Example 87], with 2400 nM.
As to `Cc1cn(-c2cc(-c3cc4n(n3)CCCNC4=O)ccn2)cn1` [Example 90], the IC50 is 2760 nM.
For `O=C(O)CCc1ccc(-c2cc(-c3cc4n(n3)CCNC4=O)ccn2)cc1` [Example 102, 3-{4-[4-(4-oxo-4,5,6,7-tetrahydropyrazolo[1,5-a]pyrazin-2-yl)pyridin-2-yl]phenyl}propanoic acid], the IC50 turned out to be 4190 nM.
Turning to `NCCCn1nc(-c2ccncc2)cc1C(=O)O` [Example 63], the IC50 amounted to 1160 nM.
For the compound `O=C1NCCn2nc(-c3ccnc(/C=C/c4cccnc4)c3)cc21` [Example 18, dihydrochloride], the half-maximal inhibitory concentration (IC50) was determined as 212 nM.
On the same count and under the same terms, the value for `O=C1NCCn2nc(-c3ccnc(-c4ccco4)c3)cc21` [Example 65] was 1200 nM.
The same measure, in the same setting: then `CCOC(=O)c1cc(-c2ccnc(-c3cnc4ccccc4c3)c2)nn1CCN` [Example 58, hydrochloride], with 1030 nM; and `CN(C)c1cc(-c2cc3n(n2)CCNC3=O)ccn1` [Example 138, 2-[2-(dimethylamino)pyridin-4-yl]-6,7-dihydropyrazolo[1,5-a]pyrazin-4(5H)-one trifluoroacetate], with 37200 nM; and `Cc1cnn(-c2cc(-c3cc4n(n3)CCCNC4=O)ccn2)c1` [Example 142, 2-[2-(4-methyl-1H-pyrazol-1-yl)pyridin-4-yl]-5,6,7,8-tetrahydro-4H-pyrazolo[1,5-a][1,4]diazepin-4-one trifluoroacetate], with 53400 nM.
For `COc1cncc(-c2cc(-c3cc4n(n3)CCNC4=O)ccn2)c1` [Example 77, trifluoroacetate], the IC50 came out at 1690 nM.
Same read-out and setting: the value for `CCOC(=O)c1cc(-c2ccnc(-c3ccc(O)cc3)c2)nn1CCCN` [Example 141, ethyl 1-(3-aminopropyl)-3-[2-(4-hydroxyphenyl)pyridin-4-yl]-1H-pyrazole-5-carboxylate hydrochloride] was 47500 nM; that for `O=Cc1ccc(-c2cc(-c3cc4n(n3)CCNC4=O)ccn2)cc1` [Example 62, hydrochloride] was 1150 nM.
The same measure, in the same setting: the value for `CCOC(=O)c1cc(-c2ccnc(-c3cccc(OC)c3)c2)nn1CCN` [Example 110, ethyl 1-(2-aminoethyl)-3-[2-(3-methoxyphenyl)pyridin-4-yl]-1H-pyrazole-5-carboxylate dihydrochloride] was 5230 nM; that for `O=C1NCCCn2nc(-c3ccc(O)cc3)cc21` [Example 147, 2-(4-hydroxyphenyl)-5,6,7,8-tetrahydro-4H-pyrazolo[1,5-a][1,4]diazepin-4-one] was 118000 nM; that for `O=C1NCCn2nc(-c3ccnc(-c4ccc5ccncc5c4)c3)cc21` [Example 14] was 194 nM.
On to `O=C1NCCn2nc(-c3ccnc(-n4ccnc4)c3)cc21` [Example 70, hydrochloride], for which the IC50 worked out at 1360 nM.
As to `NCCn1nc(-c2ccncc2)cc1C(=O)O` [Example 45, trifluoroacetate], the IC50 was found to be 735 nM.
On the same count and under the same terms, the value for `CN(C)c1ccc(-c2cc(-c3cc(C(=O)O)n(CCN)n3)ccn2)cc1` [Example 10] was 117 nM.
Take `O=C1NCCn2nc(-c3ccnc(-c4ccc(C(=O)N5CCOCC5)cc4)c3)cc21` [Example 101, 2-{2-[4-(morpholin-4-ylcarbonyl)phenyl]pyridin-4-yl}-6,7-dihydropyrazolo[1,5-a]pyrazin-4(5H)-one]: the half-maximal inhibitory concentration (IC50) was 3650 nM.
Still for that read-out and setting: then `O=C1NC(CCl)Cn2nc(-c3ccnc(-c4cnc5ccccc5c4)c3)cc21` (stereo not shown) [Example 64], with 1170 nM.
For the compound `O=C1NCCn2nc(-c3ccnc(-c4ccc5c(c4)CNCC5)c3)cc21` [Example 82, trifluoroacetate], the IC50 turned out to be 2080 nM.
As to `NCCCn1nc(-c2ccc(O)cc2)cc1C(=O)O` [Example 119, 1-(3-aminopropyl)-3-(4-hydroxyphenyl)-1H-pyrazole-5-carboxylic acid dihydrochloride], the IC50 was found to be 8110 nM.
Same read-out and setting: then `CCOC(=O)c1cc(-c2ccnc(-c3cccc([N+](=O)[O-])c3)c2)nn1CCCN` [Example 137, ethyl 1-(3-aminopropyl)-3-[2-(3-nitrophenyl)pyridin-4-yl]-1H-pyrazole-5-carboxylate dihydrochloride], with 31600 nM; and `CC(=O)Nc1cccc(-c2cc(-c3cc4n(n3)CCNC4=O)ccn2)c1` [Example 99, N-{3-[4-(4-oxo-4,5,6,7-tetrahydropyrazolo[1,5-a]pyrazin-2-yl)pyridin-2-yl]phenyl}acetamide], with 3310 nM; and `O=C1NCCn2nc(-c3ccncc3)cc21` [Example 88], with 2600 nM.
Consider `O=C1NCCn2nc(-c3ccnc(-c4ccc(F)cc4F)c3)cc21` [Example 89, dihydrochloride], for which the IC50 worked out at 2620 nM.
Still for that read-out and setting: the value for `O=C1NCCCn2nc(-c3ccnc(-n4cnc(-c5ccccc5)c4)c3)cc21` [Example 105, 2-[2-(4-phenyl-1H-imidazol-1-yl)pyridin-4-yl]-5,6,7,8-tetrahydro-4H-pyrazolo[1,5-a][1,4]diazepin-4-one trifluoroacetate] was 4310 nM.

(Values after patent US20040152739A1, “Acyclic pyrazole compounds for the inhibition of mitogen activated protein kinase-activated protein kinase-2” (priority 2002, published 2004).)
